Data on 79 molecules can be found in publication PMC12040169 (PLOS Biology, 2025).

A short description of this data set: in vitro. To be noted: human, hela cells, % viability.
One may read the viability as a read-out of living cells in per cent, often relative to untreated cells. `COc1cc(-c2cncc(NCc3ccco3)n2)cc(OC)c1OC` [CBK065259]: the viability at 28.5 h, 10 µM came to 99.9%.

On to `CCCC(=O)Nc1cc(S(=O)(=O)NC)ccc1C` [CBK024770], for which the viability at 28.5 h, 10 µM was 91.8%. As for `Cc1ccc(-c2csc(C3CN4CCCC4CO3)n2)s1` (stereo not shown) [CBK304113], the figure is 121%; as for `CCOC(=O)c1ccc(N2C(=O)CC(N3CCN(c4ccc(S(C)(=O)=O)cc4)CC3)C2=O)cc1` (stereo not shown) [CBK268721], 103%.

On to `Cc1c(Cc2ccccc2)c(=O)oc2c(CN3CCCC(C)C3)c(O)ccc12` (stereo not shown) [CBK266995], for which the viability at 28.5 h, 10 µM came out at 93.2%. As for `c1ccc2c(COc3nccnc3N3CCNCC3)ccnc2c1` [CBK014866], the figure is 90.3%; as for `Cc1cc(N(C)C)cc(C2CCCN(C(=O)C3CCC3)C2)n1` (stereo not shown) [CBK282004], 88.7%. As for `Cn1c(=O)n(CC(=O)NCCc2ccccc2)c2cccnc21` [CBK283910], the figure is 82.8%; as for `COC(=O)CCN(Cc1nnc(C2CC2)o1)C(C)C` [CBK304470], 84.6%. As for `Cc1c(NC(=O)CSc2nnc(-c3ccc4ccccc4n3)s2)c(=O)n(-c2ccccc2)n1C` [CBK269341], the figure is 92.7%; as for `Cc1c(C(=O)NCC[S+](C)[O-])oc2c(C)cccc12` (stereo not shown) [CBK282511], 88.8%. Consider `Cc1ccc(=O)n(CC(=O)N2CCC[C@@H]3NC(=O)c4ccccc4OCCCCC[C@@H]32)n1` [CBK292100], for which the viability at 28.5 h, 10 µM turned out to be 94%. For the molecule `COc1ccc(S(=O)(=O)N(C)CC(=O)Nc2ccccc2C(F)(F)F)cc1OC` [CBK266159], the viability at 28.5 h, 10 µM was determined as 106%. Consider `Cc1cc(C(=O)NC2CCCc3c2cnn3-c2ccc(F)cc2)on1` (stereo not shown) [CBK282310], for which the viability at 28.5 h, 10 µM came to 108%. With `Cc1ccc(-c2nn3c(C)nnc3s2)cc1NC(=O)c1ccc([N+](=O)[O-])o1` [CBK267247] the figure was 95.2%; with `COc1ccc(NC(=O)CSc2nnc(C3CC3)n2C)c(OC)c1` [CBK270303], 81.9%; with `CC1CCCN(c2nc3nc[nH]c(=O)c3s2)C1` (stereo not shown) [CBK288120], 83.4%. With `Cc1ccc(NCC2CCN(CC(=O)Nc3cc(C)on3)C2)nc1` (stereo not shown) [CBK306337] the figure was 95.5%. With `Cc1nc(NS(=O)(=O)c2cc(Cl)sc2Cl)sc1C(=O)N1CCN(C)CC1` [CBK045818] the figure was 106%; with `OCCN(Cc1cccnc1)Cc1cccn1-c1ccc(F)cc1F` [CBK283042], 90.4%. As for `CCCN1CCC(N2CCN(CCO)CC2)CC1` [CBK261920], the viability at 28.5 h, 10 µM stood at 79.9%.

`CCN(CC)C(=O)CC1SC(NCC2CCCCC2)=NC1=O` (stereo not shown) [CBK067923]: the viability at 28.5 h, 10 µM was found to be 92.9%.

Take `COc1ccc(C[C@@]23CC[C@H](NC(=O)NCCc4ccccc4)C[C@@H]2N(C)CC3)cc1` [CBK024127]: the viability at 28.5 h, 10 µM was 95.2%. With `O=[N+]([O-])c1ccc(S(=O)(=O)N2CCN(S(=O)(=O)c3ccc(Cl)cc3)CC2)cc1` [CBK264312] the figure was 118%; with `O=C(CSc1ccccn1)Nc1ccccc1-c1ccccc1` [CBK263553], 90.6%. With `Cn1cc(N2CCN(C(=O)CCOc3ccccc3)CC2)cn1` [CBK305473] the figure was 102%. As for `COc1ccc2cc(CNc3ccc(Oc4ccccc4)cc3)c(=O)[nH]c2c1` [CBK286158], the figure is 83.7%; as for `COc1ccc(CCN(CCN2CCOCC2)C(=O)NCc2ccc3c(c2)OCO3)cc1OC` [CBK160540], 93.3%. Consider `Cc1ncccc1C(=O)N1CCN(Cc2ccccc2)CC1` [CBK200171], for which the viability at 28.5 h, 10 µM worked out at 97.7%.

Regarding `NC1=C(N)OC(Oc2ccccc2C(F)(F)F)=NN1` [CBK018424], the viability at 28.5 h, 10 µM was found to be 57.2%. With `O=C(CSc1nnc(COc2ccccc2)n1-c1ccccc1)c1cccs1` [CBK265133] the figure was 99.3%.

Turning to `Cc1nc(CN2CCCC3(CCN(C(=O)c4cc(F)c(F)cc4F)C3)C2)cs1` (stereo not shown) [CBK132026], the viability at 28.5 h, 10 µM stood at 119%. With `O=C(CN1CCC(O)(Cc2ccccc2)CC1)N1CCCCCC1` [CBK283500] the figure was 96.9%; with `COc1cc(/C=N/NC(=O)CCc2c(C)n[nH]c2C)ccc1O` [CBK262925], 90.1%. As for `O=C(CCCSc1nc2sc3c(c2c(=O)[nH]1)CCCC3)NCCO` [CBK263336], the figure is 90.9%; as for `CCOC(=O)c1ccc(-c2nccnc2Oc2cccc(OC)c2)cc1` [CBK107115], 81%. Consider `COC(=O)c1c(NC(=O)c2c(C)c(-c3ccc(Cl)cc3Cl)nc3ccccc23)sc2c1CCC(C)C2` (stereo not shown) [CBK262644], for which the viability at 28.5 h, 10 µM amounted to 82.9%. As for `Cc1cc(C)c(C)c(S(=O)(=O)NCCCC(=O)O)c1C` [CBK268898], the figure is 83.8%. For `Cc1ccc(N)c(C(=O)CCCCC(=O)O)c1` [CBK260970], the viability at 28.5 h, 10 µM turned out to be 90.5%. As for `COc1ccc(CCNC(=O)Nc2ccccc2[N+](=O)[O-])cc1` [CBK266497], the figure is 96.8%; as for `COc1ccc(C(=O)N2CCN(Cc3cc(OC)ccc3OC)CC2)cc1` [CBK263032], 88.8%. For the molecule `COc1nccnc1OC1CCN(Cc2ccc(Cl)cc2)CC1` [CBK084240], the viability at 28.5 h, 10 µM came to 98.7%. With `Cn1cc(-c2ncc(OCCc3cccs3)nc2N)cn1` [CBK145167] the figure was 87.8%; with `c1ccc(Oc2ccc(Nc3cccc(-c4ccc(N5CCOCC5)cc4)n3)cc2)cc1` [CBK036986], 95.4%. As for `Cc1cnc2[nH]c(C3CCCN(C(=O)c4cn(C)nc4C)C3)cc2c1` (stereo not shown) [CBK285170], the figure is 110%. As for `O=C(NC1CC1)[C@@H]1C=CCN1S(=O)(=O)c1ccc(F)cc1` [CBK284294], the figure is 92.5%. `S=c1nccc(N2CCC(Cc3ccccc3)CC2)[nH]1` [CBK288361]: the viability at 28.5 h, 10 µM amounted to 112%. As for `COC(=O)c1cn([C@H]2CO[C@H]3[C@@H]2OC[C@@H]3NC(=O)Nc2ccc(OC)cc2)nn1` [CBK289500], the figure is 94.2%; as for `CC[C@H]1CN(C(=O)c2ccnc(Cl)c2)CC[C@H]1CC(=O)NCc1ccc2c(c1)OCO2` [CBK289137], 110%. With `Cc1cccc(=O)n1CCCn1cc(C2CCCNC2)nn1` (stereo not shown) [CBK306946] the figure was 91%; with `O=C(Nc1ccnn1Cc1cccs1)c1cc(=O)[nH]c2ccccc12` [CBK295606], 102%. In the case of `CCc1ccc(CNC(=O)Cn2nnc(-c3ccc(C(C)N4CCC(C)CC4)cc3)n2)cc1` (stereo not shown) [CBK164199T], the viability at 28.5 h, 10 µM amounted to 97.5%.

As for `COc1ccc(S(=O)(=O)N2CCN(CCN3C(=O)c4cccc5cccc(c45)C3=O)CC2)cc1[N+](=O)[O-]` [CBK263301], the viability at 28.5 h, 10 µM worked out at 102%. With `CCCC1(OC(=O)Nc2ccc(Cl)cc2)CCCCC1` [CBK026295] the figure was 91.4%. For the molecule `Cc1cccc(NC(=O)CSc2nc(O)c3c(C)cc(C)nc3n2)c1` [CBK266179], the viability at 28.5 h, 10 µM turned out to be 90.5%. With `Cc1ccc(CNC(=O)CSc2nc(N)n[nH]2)cc1` [CBK267914] the figure was 103%; with `CC(C)(C)c1csc(NCc2c(O)ccc3ccccc23)n1` [CBK078381], 92.9%.

Consider `COc1cc(C2N3CC4(C)CN2CC(C)(C3)C4=O)ccc1O` (stereo not shown) [CBK261453], for which the viability at 28.5 h, 10 µM is 99.6%. As for `CN(C)CCC1CCCCN1C(=O)[C@@H]1C[C@@H]2C=C[C@H]1C2` (stereo partly shown) [CBK282054], the figure is 89.2%. As for `Cc1ccc(NCC2CCN(c3cc(=O)n4oc(C)cc4n3)C2)nc1` (stereo not shown) [CBK305827], the figure is 90.1%. As for `Cc1nc(C)c(C(=O)NCCN2CC(C)CC(C)C2)s1` (stereo not shown) [CBK283071], the figure is 95.1%; as for `CN(C)C(=O)C1(Cc2ccccc2-c2cccnc2)CCN(Cc2ccccc2)CC1` [CBK285522], 85.7%. In the case of `CC(=O)Nc1ccc(-c2nc[nH]c2Br)cc1` [CBK019063], the viability at 28.5 h, 10 µM was 88%. Take `OC(c1cccs1)C1CCN(Cc2ccc(Cn3cccn3)cc2)CC1` (stereo not shown) [CBK307454]: the viability at 28.5 h, 10 µM was found to be 83.6%.

In the case of `CN(CCc1cccnc1)CC(=O)Nc1cccc(Cl)c1` [CBK304108], the viability at 28.5 h, 10 µM turned out to be 93.1%. With `CCNC(=O)c1ccc(-n2cccn2)c(C#Cc2cccnc2)c1` [CBK283150], the viability at 28.5 h, 10 µM amounted to 105%. With `Cc1ccc(C(=O)Nc2ncn(CC(=O)N3CCCCCC3)n2)cc1` [CBK304569] the figure was 106%; with `O=C(CN1C(=O)c2ccccc2C1=O)Nc1cc(C(=O)O)cc(C(=O)O)c1` [CBK262024], 102%.

Regarding `Nc1ccc(-c2nc3cc(C(=O)c4ccc5[nH]c(-c6ccc(N)cc6)nc5c4)ccc3[nH]2)cc1` [CBK262848], the viability at 28.5 h, 10 µM was found to be 99.7%.

As for `Cc1c(Cc2ccccc2)c(N2CCN(Cc3ccccc3)CC2)n2c(nc3ccccc32)c1C#N` [CBK263150], the viability at 28.5 h, 10 µM was 94.9%. With `Cc1noc(C)c1C(=O)N1CCC[C@H](C(=O)c2ccc(F)cc2)C1` [CBK284334], the viability at 28.5 h, 10 µM was determined as 81.7%. As for `COc1ccc(C(=O)Nc2ccccc2OC2CCNCC2)cc1` [CBK050282T], the figure is 85%; as for `NS(=O)(=O)c1cc(C(=O)OCC(=O)c2ccccc2)c(Cl)cc1Cl` [CBK264542], 90.8%; as for `O=C(c1n[nH]c2c1CCCC2)N1CC(=O)N(CCc2ccccc2)C(=O)C1` [CBK288110], 98.3%. As for `Cc1nn(CCn2cncc2-c2cnn(C)c2)c(C)c1C` [CBK281783], the figure is 83.7%; as for `COC(=O)[C@@H]1CN(C(=O)C2CCCC2)CCN1C(=O)c1cccs1` [CBK289609], 93.5%; as for `O=C1Nc2ccc(S(=O)(=O)NCCCO)c3cccc1c23` [CBK262033], 85.9%. With `CC(C)(C)S(=O)(=O)Nc1nccnc1-c1cccs1` [CBK050765] the figure was 107%. On to `COCCNc1nc2c([nH]1)c(=O)n(C)c(=O)n2C` [CBK288104], for which the viability at 28.5 h, 10 µM came out at 90.3%.
